Assay results from ChEMBL document CHEMBL1201862, “PubChem BioAssay data set” (2004).
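Five concentrations, 48 hours, 96-well plates. GI50 is the concentration that inhibits growth by half.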 Calls of active or inactive are those of the source. Cut-off read from the data, not from the text of the source: active = GI50 up to about 1.1 µM and inactive = higher.

Key:
Experiment in all cases: NCI anticancer screen, dose series, 48 h
HL-60 = test system: HL-60
M14 = test system: M14
SK-OV-3 = test system: SK-OV-3
UACC-257 = test system: UACC-257
EKVX = test system: EKVX
RPMI-8226 = test system: RPMI-8226
CCRF-CEM = test system: CCRF-CEM
K562 = test system: K562
LOX IMVI = test system: LOX IMVI
786-0 = test system: 786-0
HCT-15 = test system: HCT-15
IGROV-1 = test system: IGROV-1
HCT-116 = test system: HCT-116
KM12 = test system: KM12
SK-MEL-5 = test system: SK-MEL-5
NCI-H460 = test system: NCI-H460
OVCAR-4 = test system: OVCAR-4
A498 = test system: A498

| Structure (SMILES) | GI50 (HL-60) | GI50 (M14) | GI50 (SK-OV-3) | GI50 (UACC-257) | GI50 (EKVX) | GI50 (RPMI-8226) | GI50 (CCRF-CEM) | GI50 (K562) | GI50 (LOX IMVI) | GI50 (786-0) | GI50 (HCT-15) | GI50 (IGROV-1) | GI50 (HCT-116) | GI50 (KM12) | GI50 (SK-MEL-5) | GI50 (NCI-H460) | GI50 (OVCAR-4) | GI50 (A498) |
| --- | --- | --- | --- | --- | --- | --- | --- | --- | --- | --- | --- | --- | --- | --- | --- | --- | --- | --- |
| NC1=NS(=O)(=O)N=C(N)C1=Cc1ccc([N+](=O)[O-])o1 | 5.51 µM (inactive) | 14 µM (inactive) | 35 µM (inactive) | 15.5 µM (inactive) | 17.9 µM (inactive) | 17.1 µM (inactive) | 9.33 µM (inactive) | 6.01 µM (inactive) | 17.2 µM (inactive) | 17.1 µM (inactive) | 16.8 µM | 18.2 µM (inactive) | 15.4 µM (inactive) | 18.5 µM (inactive) | 15.3 µM (inactive) | 17.9 µM (inactive) | 19.9 µM (inactive) |  |
| NCCSc1cc(O)c2c(c1N)C(=O)c1ccccc1C2=O | 20.8 µM (inactive) | 74.3 µM (inactive) | > 100 µM (inactive) |  | > 100 µM (inactive) |  | 16.8 µM (inactive) | 22.2 µM (inactive) |  | 29.9 µM (inactive) | 29.3 µM | 18.8 µM (inactive) | 34 µM (inactive) | 51.2 µM (inactive) | 12.9 µM (inactive) | 36 µM (inactive) | 99.3 µM (inactive) | 91.2 µM (inactive) |
| N#[N+][c-]1c(-c2ccccc2)n[nH]c1=O | > 100 µM (inactive) | > 100 µM (inactive) | > 100 µM (inactive) | > 100 µM (inactive) | > 100 µM (inactive) | > 100 µM (inactive) | > 100 µM (inactive) | 97.9 µM (inactive) | > 100 µM (inactive) | > 100 µM (inactive) | > 100 µM | > 100 µM (inactive) | > 100 µM (inactive) | > 100 µM (inactive) |  | > 100 µM (inactive) | > 100 µM (inactive) |  |
| COc1ccc(/C=C/C(=O)c2sc(-c3cccnc3)nc2C)cc1 | 20.4 µM (inactive) |  | 82.6 µM (inactive) | > 100 µM (inactive) | > 100 µM (inactive) | 2.9 µM (inactive) | 28.6 µM (inactive) | 21.8 µM (inactive) | 25.1 µM (inactive) | 41.6 µM (inactive) | 45.3 µM | 60.1 µM (inactive) |  | 15.3 µM (inactive) | 30.3 µM (inactive) | 53.5 µM (inactive) |  | > 100 µM (inactive) |
| O=c1[nH]c(S)nc2c1sc(=S)n2-c1ccccc1 | > 100 µM (inactive) | > 100 µM (inactive) | > 100 µM (inactive) | > 100 µM (inactive) | > 100 µM (inactive) | > 100 µM (inactive) | > 100 µM (inactive) | > 100 µM (inactive) | > 100 µM (inactive) | > 100 µM (inactive) | > 100 µM | > 100 µM (inactive) | > 100 µM (inactive) | > 100 µM (inactive) | > 100 µM (inactive) | > 100 µM (inactive) | > 100 µM (inactive) | > 100 µM (inactive) |
| CC12CC/C(=N/NC(N)=O)C3C1CCCC32 | > 100 µM (inactive) | > 100 µM (inactive) | > 100 µM (inactive) | > 100 µM (inactive) |  | > 100 µM (inactive) | > 100 µM (inactive) | > 100 µM (inactive) | > 100 µM (inactive) | > 100 µM (inactive) | > 100 µM | > 100 µM (inactive) | > 100 µM (inactive) | > 100 µM (inactive) | > 100 µM (inactive) | > 100 µM (inactive) | > 100 µM (inactive) | > 100 µM (inactive) |
| COC(=O)/C(C#N)=C1\CCC(OC)N1C (stereo not drawn) | > 100 µM (inactive) | > 100 µM (inactive) | > 100 µM (inactive) | > 100 µM (inactive) | > 100 µM (inactive) | > 100 µM (inactive) | > 100 µM (inactive) | > 100 µM (inactive) | > 100 µM (inactive) | > 100 µM (inactive) | > 100 µM | > 100 µM (inactive) | > 100 µM (inactive) | > 100 µM (inactive) | > 100 µM (inactive) | > 100 µM (inactive) | > 100 µM (inactive) |  |
| Cc1cc2nc(O)c(CCC(=O)O)nc2cc1C | > 100 µM (inactive) | > 100 µM (inactive) | > 100 µM (inactive) | > 100 µM (inactive) | > 100 µM (inactive) | > 100 µM (inactive) | > 100 µM (inactive) | > 100 µM (inactive) | > 100 µM (inactive) | > 100 µM (inactive) | > 100 µM | > 100 µM (inactive) | > 100 µM (inactive) | > 100 µM (inactive) | > 100 µM (inactive) | > 100 µM (inactive) | > 100 µM (inactive) | > 100 µM (inactive) |
| O=C1C(c2ccccc2)=[N+]([O-])c2ccc(Cl)cc21 | 10.6 µM (inactive) | 27.8 µM (inactive) | > 100 µM (inactive) | 19.3 µM (inactive) | 16.9 µM (inactive) | 21.2 µM (inactive) | 25.9 µM (inactive) | 32.5 µM (inactive) | 18.4 µM (inactive) | 82.4 µM (inactive) | 20 µM | 20.6 µM (inactive) | 15.8 µM (inactive) | 30.1 µM (inactive) | 17.3 µM (inactive) | 42.4 µM (inactive) |  | > 100 µM (inactive) |
| COc1ccc([C@H]2CC3C(=O)N(c4ccc(OC)cc4)C(=O)C3c3[nH]c4ccccc4c32)cc1 (stereo partly drawn) |  | 66.5 µM (inactive) | 44.2 µM (inactive) | > 100 µM (inactive) | > 100 µM (inactive) |  | 48.4 µM (inactive) | > 100 µM (inactive) | > 100 µM (inactive) | 10.8 µM (inactive) | 57.4 µM | > 100 µM (inactive) | 9.31 µM (inactive) | 47 µM (inactive) | 46.3 µM (inactive) | 18.6 µM (inactive) | > 100 µM (inactive) | > 100 µM (inactive) |
| CC(C)c1ccccc1NC(=O)CCC(=O)NN | > 100 µM (inactive) | > 100 µM (inactive) | > 100 µM (inactive) | > 100 µM (inactive) | > 100 µM (inactive) | > 100 µM (inactive) | > 100 µM (inactive) | > 100 µM (inactive) | > 100 µM (inactive) | > 100 µM (inactive) | > 100 µM | > 100 µM (inactive) | > 100 µM (inactive) | > 100 µM (inactive) |  |  |  |  |
| COc1ccc(-c2cc(-c3cc(Cl)cc(Br)c3O)nc(O)n2)cc1 | 23.2 µM (inactive) | 19.2 µM (inactive) | 19.5 µM (inactive) | 17.7 µM (inactive) | 5.87 µM (inactive) | 18.8 µM (inactive) | 19.8 µM (inactive) | 14.1 µM (inactive) | 17.3 µM (inactive) | 15.5 µM (inactive) |  | 20.4 µM (inactive) | 12.2 µM (inactive) | 18.9 µM (inactive) |  | 17.9 µM (inactive) | 5.66 µM (inactive) | 16.6 µM (inactive) |
| CCSc1nnc(-c2ccccc2)nc1Cc1ccc(OC)cc1 | 40.5 µM (inactive) | > 100 µM (inactive) | 67.3 µM (inactive) | 56.5 µM (inactive) | > 100 µM (inactive) | 81.8 µM (inactive) | 69 µM (inactive) | 71.3 µM (inactive) | 47.9 µM (inactive) | > 100 µM (inactive) | 82 µM | > 100 µM (inactive) | 38.5 µM (inactive) | > 100 µM (inactive) |  | 46.5 µM (inactive) | > 100 µM (inactive) | 77.6 µM (inactive) |
| Cc1ccccc1/C=C/c1csnn1 | 21.1 µM (inactive) | > 100 µM (inactive) | > 100 µM (inactive) | > 100 µM (inactive) | > 100 µM (inactive) | 33.4 µM (inactive) | 60.3 µM (inactive) | > 100 µM (inactive) | > 58.7 µM (inactive) | > 100 µM (inactive) | > 42.2 µM | > 100 µM (inactive) | > 44 µM (inactive) | > 100 µM (inactive) | > 100 µM (inactive) | > 47.3 µM (inactive) | > 100 µM (inactive) | > 100 µM (inactive) |
| CSc1sc(=S)sc1C(=O)N(C)c1ccccc1 | 35.6 µM (inactive) | > 100 µM (inactive) |  |  | > 100 µM (inactive) | 52.7 µM (inactive) | 56 µM (inactive) | > 100 µM (inactive) | > 100 µM (inactive) | > 100 µM (inactive) | > 100 µM | > 100 µM (inactive) | > 100 µM (inactive) | 91.8 µM (inactive) | > 100 µM (inactive) | > 100 µM (inactive) | > 100 µM (inactive) |  |
| CSC(=O)C[C@@]12O[C@@H]([C@@H](C)C3CCC4[C@@H]5C(O)CC6=CC(=O)C=C[C@]6(C)C5CC[C@@]43C)C[C@](C)(O1)C(C)(C)O2 (stereo partly drawn) | 7.85 µM (inactive) | 16.3 µM (inactive) | 16.6 µM (inactive) | 12.6 µM (inactive) |  | 4.8 µM (inactive) | 3.86 µM (inactive) | 4.3 µM (inactive) | 12.1 µM (inactive) | 16.1 µM (inactive) | 17.3 µM | 16.1 µM (inactive) | 12.8 µM (inactive) | 16 µM (inactive) |  | 19.1 µM (inactive) | 13.5 µM (inactive) | 16.4 µM (inactive) |
| CC(=O)O[C@@H]1CC(C)C2CC2C2=C(C(O)OC2O)[C@@H]1C(C)CCC=C(C)C (stereo partly drawn) | 20.4 µM (inactive) | 31 µM (inactive) |  | 24.1 µM (inactive) | 40 µM (inactive) | 25.2 µM (inactive) | 24.8 µM (inactive) | 23.9 µM (inactive) | 20.8 µM (inactive) | 21.4 µM (inactive) | 22 µM | 25.1 µM (inactive) | 18.4 µM (inactive) |  | 25.3 µM (inactive) | 20 µM (inactive) | 24.4 µM (inactive) | 35.7 µM (inactive) |
